Measured values taken from US20090054376A1, “BENZOFURAN DERIVATIVES WITH THERAPEUTIC ACTIVITIES” (Pharmos Corporation, priority 2005, published 2009).

Legend:
Human CB1 Receptor = target: T1, Human CB1 Receptor (Homo sapiens, UniProt P21554); assay: [35S]GTPγS-binding assay, hCB1; type: biochemical; details: NB = no binding
T1 construct: expressed in transfected cells; host or cells: HEK-293 cells (membranes)
Protocol: Functional activity of compounds of the invention toward the cannabinoid receptors was determined by stimulation of [^35S]-GTPγS binding using membranes from HEK-293 cells expressing the hCB1 receptor and membranes expressing the hCB2 receptor derived from either Sf9 (PerkinElmer) or from HEK-293 cells. Activities were compared to that of the known cannabinoid full agonist CP55940 (Alexis). The purpose of this experiment is to determine the potency of the compounds of the invention as agonists or antagonists toward each of the receptor tested.
[^35S]-GTPγS binding reactions were performed at 30° C. in 96-well plates containing 5-10 μg membrane protein suspended in 0.1 ml binding buffer [20 mM HEPES-NaOH, pH 7.4, 5 mM MgCl2, 100 mM NaCl, 0.2% (w/v) bovine serum albumin] supplemented with 50 μM GDP and 0.06 nM-10 μM of the compound being tested. Binding was initiated by the addition of [^35S]GTPγS (0.3 nM final concentration). Incubations were performed for 90 minutes and were terminated by filtration on GF/C filter plates (PerkinEimer). Filters were washed ten times with ice-cold wash buffer (20 mM HEPES-NaOH, pH 7.4, 10 mM sodium pyrophosphate). Non-specific binding was measured in the presence of 15 μM GTPγS.
Assays were performed in duplicates. Data was analyzed by plotting on the X axis the log concentration against percent of specific [^35S]GTPγS binding out of basal [^35S]GTPγS binding on the Y axis, non-linear regression is then performed using GraphPad Prism, version 3.0 (GraphPad, San Diego, Calif.) to calculate the EC50 and Emax of the compound. The EC50 value represents the concentration at which there is 50% [^35S]GTPγS binding and the Emax value the upper plateau of the curve.

[1] = system: visceral pain writhing responses; assay: Tolerance: repeated administration in the model of Visceral Pain; type: in vivo, mice; details: tested day 11 at 2 mg/kg i.v.
Protocol: Male ICR mice (average body weight 25 g, Harlan, Israel) were pretreated by i.v. injection at volume dose of 5 ml/kg of vehicle, control and test compounds at various doses. Other routes of administration were tested for selected compounds including i.m. or s.c. injections at volume dose of 2.5 ml/kg and p.o. gavage at volume dose of 5 ml/kg. Compounds were dissolved in CREMOPHOR®:Ethanol and diluted 1:20 in saline prior to injection or gavage. Compounds administered i.v. were injected fifteen minutes before pain induction, whereas compounds administered i.m., s.c. or p.o. were supplied thirty minutes before pain induction, unless otherwise indicated. Each treatment group, except for controls comprising at least 30 animals, was composed of at least 6 animals. Fifteen or thirty minutes after drug administration, depending on the route of administration, the mice were injected i.p. with 10 ml/kg of 0.6% acetic acid and the number of visceral pain related behaviors (writhing movements globally defined as WR, i.e. stretching, contractions of the abdomen accompanied by an elongation of the body and extension of the hind limbs) was counted over a period of 5 minutes, starting 5 minutes after the acetic acid administration. These visceral pain related behaviors were globally defined as writhing responses (WR). The results are expressed as mean number of writhing responses ±SEM. Data were analyzed using analysis of variance (ANOVA) followed by post-hoc Fisher test.
Briefly compounds of the invention were administered at 10 mg/kg i.p. daily for 10 days and their analgesic activity was tested on day 11 as described in Example 17 (namely at 2 mg/kg i.v.). […] Each treatment group comprised 10 animals.

[2] = system: TNBS induced inflammatory bowel disease; assay: TNBS induced inflammatory bowel disease; type: in vivo, Female Balb/C mice; details: 20 mg/kg i.p. daily
Protocol: Female Balb/C mice (average body weight 20 g, Harlan, Israel) were lightly sedated and challenged rectally, by instillation with 70 μl of 2.5% TNBS (Sigma) dissolved in 50% ethanol, to induce intestinal inflammation and colitis. Animals were weighted before the beginning of the study and treatment was administered i.p. on a daily basis for six days at 20 mg/kg and volume dosage of 5 ml/kg. During the study period of up to 7 days, the following parameters were daily monitored and recorded: body weight, presence of blood in the stool and stool consistency. These findings are scored according to Table 6 [Murthy S.N. et al., Dig. Dis. Sci. 38:1722-34, 1993].
On the last day of the study, animals were euthanized. Abdomen was open and the colon was sectioned at the level of the caecum and the rectum. The colon was weighted and its length was measured. The whole column was excised, slited longitudinally, and examined under a magnifying lens. Any visible damage was recorded and scored for gross pathology according to Wong [Wong et al., J. Pharm. Exp. Ther. 274: 475-80, 1995]. Namely, a score of 0 indicates no damage, 1 indicates localized hyperemia and/or edema, 2 indicates at least two sites of hyperemia and/or edema, 3 indicates localized erosion, 4 indicates localized ulcer and 5 indicates either an erosion site or ulcer extending for more than 2 cm along the colon or at least two sites of erosion or ulcer. Finally, the entire colon was fixed in 4% formaldehyde for histopathological evaluation.
Each treatment group comprised at least seven animals. The following groups served as negative controls: naïve animals, sham animals that received 70 μl of 50% ethanol without TNBS, and TNBS challenged untreated and vehicle treated animals. A group of animals receiving 10 mg/kg sulfasalazine served as positive controls. Sulfasalazine is a standard anti-inflammatory drug used for the treatment of mild to moderate ulcerative colitis and Crohn's disease, and as adjunctive therapy in the treatment of severe ulcerative colitis. This drug is also used for the treatment of non-IBD related disorders, such as rheumatoid arthritis and ankylosing spondylitis. The recognized side effect of this medicament is its hepatotoxicity upon chronic treatment.

T1 sequence (P21554 whole entry): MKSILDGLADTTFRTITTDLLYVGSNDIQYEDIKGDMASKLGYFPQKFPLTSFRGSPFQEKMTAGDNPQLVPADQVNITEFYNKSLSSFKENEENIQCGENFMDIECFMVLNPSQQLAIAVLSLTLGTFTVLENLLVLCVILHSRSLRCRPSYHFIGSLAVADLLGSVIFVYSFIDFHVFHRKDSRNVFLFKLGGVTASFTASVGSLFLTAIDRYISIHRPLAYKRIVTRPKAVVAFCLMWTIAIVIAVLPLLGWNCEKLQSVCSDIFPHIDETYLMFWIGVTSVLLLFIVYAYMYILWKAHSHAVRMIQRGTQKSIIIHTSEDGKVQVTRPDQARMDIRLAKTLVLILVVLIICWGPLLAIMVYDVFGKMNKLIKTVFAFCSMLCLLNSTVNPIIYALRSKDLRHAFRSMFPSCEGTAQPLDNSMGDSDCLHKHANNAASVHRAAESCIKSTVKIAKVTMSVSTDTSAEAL

SMILES | EC50 (Human CB1 Receptor) | Emax (Human CB1 Receptor; upper plateau of curve) | writhing responses on day 11 ([1]; repeated administration daily for 10 days (10 mg/kg i.p.), vehicle 29.75±1.09) | reduction in pain response after repeated administration ([1]; repeated administration daily for 10 days) | regained normal weight after [2] | transient loss in body weight ([2]; one day after TNBS instillation) | mortality ([2]; untreated 60%)
CCCCCCC(C)(C)c1cc(O)c2c(c1)OC1C(O)CCCCC21 (stereo not drawn) [Compound C7S-2, 2-(1,1-dimethylheptyl)-5,6,7,8,9,9a-hexahydro-4bH-10-oxa-benzo[α]azulen-4,9-diol] | 359 nM | 50% | 2.45±1.49 | 92% | – | – | –
CCCCC(C)(C)c1cc(O)c2c(c1)OC1CCCCC21 (stereo not shown) [Compound C6S-3, 3-(1,1-dimethylpentyl)-5a,6,7,8,9,9a-hexahydro-dibenzofuran-1-ol] | – | – | – | – | 4 days of treatment | about 5% | 7%
